In US6930114B2, “Pyrrolo (2.1a)dihydroisoquinolines and their use as phosphodiesterase 10a inhibitors” (Bayer Pharmaceuticals Corporation, priority 2000, dated 2005):
Where two headings read alike, the source gives them in different places.

Key:
PDE 10a = biological target: T1, PDE 10a (Homo sapiens, UniProt Q9Y233); assay: In vitro enzyme inhibition assay (3H-cAMP scintillation proximity assay); type: biochemical; details: full-length recombinant PDE 10a, Sf9 cell lysate
T1 construct: Full-length recombinant PDE 10a was expressed in Sf9 insect cells; made in house; host or cells: Sf9 insect cells (Bac-to-Bac baculovirus system); crude lysate supernatant used
T1 sequence (Q9Y233 1-779 isoform Q9Y233-1): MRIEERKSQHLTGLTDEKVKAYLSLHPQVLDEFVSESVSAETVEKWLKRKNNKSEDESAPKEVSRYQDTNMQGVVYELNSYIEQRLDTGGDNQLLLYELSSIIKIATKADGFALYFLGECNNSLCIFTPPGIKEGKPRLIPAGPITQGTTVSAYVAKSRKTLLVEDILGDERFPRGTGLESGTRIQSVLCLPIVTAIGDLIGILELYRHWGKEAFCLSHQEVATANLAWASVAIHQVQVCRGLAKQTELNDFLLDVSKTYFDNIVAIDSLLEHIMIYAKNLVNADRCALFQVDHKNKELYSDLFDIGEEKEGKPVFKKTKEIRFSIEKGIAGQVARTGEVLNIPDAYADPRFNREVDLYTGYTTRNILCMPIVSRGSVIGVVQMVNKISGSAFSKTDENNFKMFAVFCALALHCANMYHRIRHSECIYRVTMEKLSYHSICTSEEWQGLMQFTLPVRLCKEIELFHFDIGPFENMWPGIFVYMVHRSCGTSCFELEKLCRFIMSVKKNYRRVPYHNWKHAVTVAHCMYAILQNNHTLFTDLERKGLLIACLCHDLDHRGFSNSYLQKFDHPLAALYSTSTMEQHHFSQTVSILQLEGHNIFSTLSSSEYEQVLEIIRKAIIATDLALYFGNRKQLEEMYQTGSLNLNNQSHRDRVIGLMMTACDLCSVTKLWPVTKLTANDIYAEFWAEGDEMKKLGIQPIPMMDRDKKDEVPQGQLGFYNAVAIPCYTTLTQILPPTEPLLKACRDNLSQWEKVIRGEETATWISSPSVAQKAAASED
Description: Full-length recombinant PDE 10a was expressed in Sf9 insect cells (Invitrogen, Carlsbad, Calif., U.S.A.) using the Bac-to-Bac™ Baculovirus Expression System (Life Technologies, Gaithersburg, Md., U.S.A.). 48 hours post infection, cells were harvested and resuspended in 20 mL (per 1 L culture) Lysis Buffer (50 mM Tris-HCl, pH 7.4, 50 mM NaCl, 1 mM MgCl2, 1.5 mM EDTA, 10% glycerol plus 20 μL Protease Inhibitor Cocktail Set III [CalBiochem, La Jolla, Calif., U.S.A.]). Cells were sonicated at 4° C. for 1 minute and centrifuged at 10,000 RPM for 30 minutes at 4° C. Supernatant was removed and stored at −20° C. for activity assays.
The test compounds were serially diluted in DMSO using two-fold dilutions to stock concentrations ranging typically from 200 μM to 1.6 μM (final concentrations in the assay range from 4 μM to 0.032 μM). 96-well assay isoplates (Wallac Inc., Atlanta, Ga., U.S.A.) were loaded with 50 μL dilution buffer per well (dilution buffer: 50 mM Tris/HCl pH 7.5, 8.3 mM MgCl2, 1.7 mM EDTA, 0.2% BSA). 2 μL of the serially diluted individual test compounds were added to individual wells,m followed by 25 μL of a 1:25,000 dilution of crude recombinant PDE 10a-containing Sf9 cell lysate (diluted in dilution buffer described above). The enzymatic assay was initiated by addition of 25 μL (0.025 μCi) ^3H cyclic AMP tracer [5′,8-^3H] adenosine 3′,5′-cyclic phosphate (Amersham Pharmacia Biotech., Piscataway, N.J., U.S.A.) that was diluted 1:1000 in assay buffer (assay buffer: 50 mM Tris/HCl pH 7.5, 8.3 mM MgCl2, 1.7 mM EDTA). Reactions were incubated at room temperature for 60 minutes and terminated by addition of 25 μL of 18 mg/mL Yttrium Scintillation Proximity Beads (Amersham Pharmacia Biotech., Piscataway, N.J., U.S.A.). Plates were sealed and incubated at room temperature for 60 minutes. Plates were read for 30 seconds/well using a Microbeta counter (Wallac Inc., Atlanta, Ga., U.S.A.). The IC50 values were determined by plotting compound concentration versus percent inhibition.

[1] = tested on: MDA-MB-231 human breast carcinoma cells; assay: In vitro proliferation inhibition assay (LDH activity, 72 hours); type: cell-based; details: MDA-MB-231 cells, read-out: % inhibition at a concentration of 10 μM
Description: MDA-MB-231 human breast carcinoma cells (ATCC # HTB26) were cultured in standard growth medium (DMEM), supplemented with 10% heat-inactivated FBS, 10 mM HEPES, 2 mM glutamine, 100 U/mL penicillin, and 100 μg/mL streptomycin) at 37° C. in 5% CO2 (vol/vol) in a humidified incubator. Cells were plated at a density of 3000 cells per well in 100 μL growth medium in a 96 well culture dish. 24 hours after plating, LDH activity was determined using the Cytotox 96 Non-radioactive Cytotoxicity Kit (Promega, Madison, Wis., U.S.A.) to yield T0h LDH values. Briefly, cells were lysed with the addition of 200 μL of Lysis Buffer (included in the Promega Kit) and lysates were further diluted 1:50 in Lysis Buffer. 50 μL of diluted cell lysate were transferred to a fresh 96 well culture plate. The assay was initiated with the addition of 50 μL of substrate per well. Color development was allowed to proceed for 10-15 minutes. The assay was terminated with the addition of 50 μL of Stop Solution (included in Promega kit). Optical densities were determined spectrophotometrically at 490 nm in a 96 well plate reader (SpectraMax 250, Molecular Devices, Sunnyvale, Calif., U.S.A.).
Test compounds were dissolved in 100% DMSO to prepare 10 mM stocks. Stocks were further diluted 1:250 in growth medium to yield working stocks of 40 μM test compound in 0.4% DMSO. Test compounds were serially diluted in growth medium containing 0.4% DMSO to maintain constant DMSO concentrations for all wells. 50 μL of fresh growth medium and 50 μL of diluted test compound were added to each culture well to give a final volume of 200 μL. The cells with and without individual test compounds were incubated for 72 hours at which time LDH activity was measured to yield T72h values. Optionally, the IC50 values can be determined with a least squares analysis program using compound concentration versus percent inhibition. % Inhibition=[1−(T72h test−T0h)/(T72h ctrl−T0h)]×100 wherein • T72h test=LDH activity at 72 hours in the presence of test compound, • T72h ctrl=LDH activity at 72 hours in the absence of test compound and • T0h=LDH activity at Time Zero

Compound	IC50 (PDE 10a; Examples of part a (Table 1a)) [nM]	inhibition at 10 µM ([1]; Examples of part a (Table 2a)) [%]	IC50 (PDE 10a; Examples of part b (Table 1b)) [nM]	inhibition at 10 µM ([1]; Examples of part b (Table 2b)) [%]
CCOC(=O)c1c(-c2cc(C)c(O)c(C)c2)c(C)n2c1-c1cc(OC)c(OC)cc1CC2 [(part a) 1]	30	93		
CCOC(=O)c1c(-c2cccc(N(C)C)c2)c(C)n2c1-c1cc(OC)c(OC)cc1CC2 [(part a) 10]	42	93		
CCOC(=O)c1c(-c2cccc(N)c2)c(C)n2c1-c1cc(OC)c(OC)cc1CC2 [(part a) 28]	110	93		
CCOC(=O)c1c(-c2cc(O)cc(O)c2)c(C)n2c1-c1cc(OC)c(OC)cc1CC2 [(part b) 1]			110	89
